The values that follow come from PMC7018653 (mBio, 2020).

Converted amounts (≈) assume the structure as drawn. Where two headings read alike, the source gives them in different places. Residues, ends and D or L forms follow the SMILES beside them. *: point of attachment. βNA = c1ccc2cc(N*)ccc2c1

As a reminder, the MIC is the least concentration at which growth counts as inhibited. Read a low MIC as greater potency. Usually Papp stands for a coefficient for how fast a substance crosses the barrier.

Data set [1] relates to K. pneumoniae isolate (KP3800). Briefly: agar MIC according to CLSI guidelines. It counts as cell-based, Klebsiella pneumoniae.
The subject of data set [2] is E. cloacae isolate (EC3800). The data set can be described thus: agar MIC according to CLSI guidelines. The data set is classed as cell-based, Enterobacter cloacae.
A short description of data set [3]: in vitro. Conditions: Klebsiella pneumoniae, not told.
For data set [4], the system named is polymyxin-resistant K. pneumoniae isolate KP3800. Conditions: for OM permeability coefficient, fold smaller in KP3800 compared to EC3800: KP3800 vs EC3800.
For data set [5] the following is noted: critically ill patients; ref supplement refs 1-13 as given per antibiotic; cited from earlier work.
For data set [6] the following is noted: basic group carrying the positive charge; no reference given; cited from earlier work.
Data set [7] is described as follows: in vitro. Conditions: Enterobacter cloacae, not told, pH 7, Avg OM permeability coefficient (nm/s) ± SD.
The subject of a further data set is E. cloacae complex. Conditions: cited from earlier work.
Data set [8] concerns polymyxin-susceptible E. cloacae isolate EC3800. Conditions: for OM permeability of imipenem, fold faster than meropenem: E. cloacae EC3800.
The conditions of data set [9]: ref supplement refs 1-13 as given per antibiotic; cited from earlier work.
The subject of the next data set is P. aeruginosa. Conditions: not told; cited from earlier work.
A short description of data set [10]: in vitro. Conditions: Klebsiella pneumoniae, not told. This is another data set of the same source.
Where [11] appears, read: pH 7, Avg OM permeability coefficient (nm/s) ± SD, Cassette K. pneumoniae, efflux: with 25 mg/liter PAβN, two biological replicates.
The mark [12] stands for this setting: pH 7, Avg OM permeability coefficient (nm/s) ± SD, Cassette K. pneumoniae, three biological replicates.
[13] abbreviates: pH 7, Avg OM permeability coefficient (nm/s) ± SD, Discrete K. pneumoniae, three biological replicates.
Setting [14] is: Cassette E. cloacae, efflux: with 25 mg/liter PAβN, two biological replicates.
[15] abbreviates: Cassette E. cloacae, three biological replicates.
[16] abbreviates: Discrete E. cloacae, three biological replicates.

For polymyxin, the MIC in [1] (KP3800) amounted to 64 µg/mL; in data set [2] (EC3800), 0.5 µg/mL.

In the case of `CO/N=C(\C(=O)N[C@@H]1C(=O)N2C(C(=O)[O-])=C(C[N+]3(C)CCCC3)CS[C@H]12)c1csc(N)n1` [Cefepime, cefepime], the MIC in data set [1] (Klebsiella pneumoniae) was 128 µg/mL (≈ 266 µM); in [2] (Enterobacter cloacae) it was 16 µg/mL (≈ 33.3 µM). Moreover, the Papp in “in vitro [3]” (setting [11]) was below 0.3 ×10⁻⁶ cm/s; in the data set “in vitro [3]” (setting [12]), below 0.3 ×10⁻⁶ cm/s; in “in vitro [3]” (setting [13]) it was 1.36 ± 0.926 ×10⁻⁶ cm/s.

With `C[C@@H](O)[C@H]1C(=O)N2C(C(=O)O)=C(S[C@@H]3CN[C@H](C(=O)N(C)C)C3)[C@H](C)[C@H]12` [Meropenem, meropenem], the MIC in data set [1] (Klebsiella pneumoniae) is above 256 µg/mL; in data set [2] (Enterobacter cloacae) it was 4 µg/mL (≈ 10.4 µM). In addition, the “OM permeability coefficient, fold smaller in KP3800 compared to EC3800” value in data set [4] was around 10 fold. For the same compound, the “Mean Clearance” value in [5] is recorded as 10.4 L/h. Moreover, the pKa2 in data set [6] is on record as 8.3. Also, the Papp in “in vitro [7]” (setting [14]) turned out to be 40.2 ± 6.98 ×10⁻⁶ cm/s; in “in vitro [7]” (setting [15]), 84.3 ± 29.2 ×10⁻⁶ cm/s; in the data set “in vitro [7]” (setting [16]), 72.9 ± 15.5 ×10⁻⁶ cm/s; in “in vitro [3]” (setting [11]), 5.75 ± 2.17 ×10⁻⁶ cm/s; in “in vitro [3]” (setting [12]) it was 9.07 ± 0.689 ×10⁻⁶ cm/s; in the data set “in vitro [3]” (setting [13]), 8.33 ± 0.917 ×10⁻⁶ cm/s.

Turning to `CC(C)(O/N=C(\C(=O)N[C@@H]1C(=O)N2C(C(=O)[O-])=C(C[n+]3ccccc3)CS[C@H]12)c1csc(N)n1)C(=O)O` [Ceftazidime, ceftazidime], the MIC in data set [1] (Klebsiella pneumoniae) was 64 µg/mL (≈ 117 µM); in data set [2] (Enterobacter cloacae) it was 16 µg/mL (≈ 29.3 µM). Also, the “Mean Clearance” value in data set [5] is on record as 9.22 L/h. Also, the Papp in the data set “in vitro [3]” (setting [11]) is below 0.3 ×10⁻⁶ cm/s; in the data set “in vitro [3]” (setting [12]), below 0.3 ×10⁻⁶ cm/s; in the data set “in vitro [3]” (setting [13]) it was below 0.3 ×10⁻⁶ cm/s; in “in vitro [3]” (pH 7, Outer membrane permeability coefficients (nm/s), KP3800, discrete assay, average ± SD, three replicates (Table S2)), below 0.3 ×10⁻⁶ cm/s; in the data set “in vitro [3]” (pH 7, permeability coefficient, KP3800, degradation too slow to be reliably determined in intact bacteria, 'likely') it was below 0.3 ×10⁻⁶ cm/s. In the data set on E. cloacae complex, the permeability coefficients is 0.1 ×10⁻⁶ cm/s.

`C[C@@H](O)[C@H]1C(=O)N2C(C(=O)O)=C(SCCN=CN)C[C@H]12` [Imipenem, imipenem]: the MIC was found to be 128 µg/mL (≈ 428 µM) in [1] (Klebsiella pneumoniae) and 4 µg/mL (≈ 13.4 µM) in [2] (Enterobacter cloacae). Further, the results for the “OM permeability of imipenem, fold faster than meropenem” value in data set [8] and in data set [8] (listed as imipenem) were “at least 7 fold” and around 7 fold, respectively. Also, the “OM permeability of imipenem, fold faster than aztreonam” value in data set [8] (EC3800) is given as ~2,000 fold. The “OM permeability of imipenem, fold faster than cefepime” value in data set [8] (EC3800) is 258 fold. For the same compound, the “OM permeability coefficient, fold smaller in KP3800 compared to EC3800” value in [4] is given as “approximately 5 fold”. The “Mean Clearance” value in data set [5] was 12.4 L/h. Moreover, the “Fraction bound in plasma (%)” value in data set [9] is on record as 9.1%. The pKa2 in [6] is on record as 10.6. Also, the Papp came out at 393 ×10⁻⁶ cm/s in “in vitro [7]” (setting [14]); 577 ×10⁻⁶ cm/s in “in vitro [7]” (setting [15]); 666 ×10⁻⁶ cm/s in “in vitro [7]” (setting [16]); 72.3 ± 12.4 ×10⁻⁶ cm/s in the data set “in vitro [3]” (setting [11]); 90.7 ± 6.57 ×10⁻⁶ cm/s in “in vitro [3]” (setting [12]); 204 ×10⁻⁶ cm/s in the data set “in vitro [3]” (setting [13]). For the same compound, in the data set on P. aeruginosa, the “OM permeability of imipenem over meropenem, fold faster” value was 2.74 fold.

With `C[C@H]1[C@H](NC(=O)/C(=N\OC(C)(C)C(=O)O)c2csc(N)n2)C(=O)N1S(=O)(=O)O` [Aztreonam, aztreonam], the “Fraction bound in plasma (%)” value in data set [9] is given as 51.5%. Further, the Papp is below 0.3 ×10⁻⁶ cm/s in “in vitro [3]” (setting [11]), below 0.3 ×10⁻⁶ cm/s in the data set “in vitro [3]” (setting [12]), 0.864 ± 0.846 ×10⁻⁶ cm/s in “in vitro [3]” (setting [13]) and 0.74 ×10⁻⁶ cm/s in “in vitro [10]”.

As to `N=C(N)NCCC[C@H](NC(=O)[C@@H](N)Cc1ccccc1)C(=O)Nc1ccc2ccccc2c1` [PAβN, phenylalanine-arginine β-naphthylamide] (H-Phe-Arg-βNA), the “effect of efflux pump inhibitor on OM permeability estimates of the β-lactams” value in [8] (EC3800, PAβN 25 mg/liter, cassette assay) is “did not significantly affect”; in data set [4] (KP3800, PAβN 25 mg/liter, cassette assay), “did not significantly affect”.
